Source: patent US6162811A, “Ellipticine compounds” (Adir et Compagnie, priority 1996, dated 2000)
Counter-ions that a name gives are not always drawn. Like-named read-outs stand apart in the source and are kept apart here.

Columns and labels:
[1] = system: murine leukaemia P388; assay: In vitro cytotoxicity, Microculture Tetrazolium Assay, P388; type: cell-based; details: Mus musculus
Method: (§1) A/In Vitro Activity: Cytotoxicity
(§2) Four cell lines were used:
(§3) The cells are distributed onto microplates and exposed to the cytotoxic compounds. The cells are then incubated for 2 days (P388) or 4 days (LLC, KB-A1, KB-3-1).

[2] = system: murine lung carcinoma, Lewis Lung Carcinoma (LLC); assay: In vitro cytotoxicity, Microculture Tetrazolium Assay, LLC; type: cell-based; details: Mus musculus, 96 h
Method: as §1, §2
1 murine lung carcinoma, Lewis Lung Carcinoma (LLC),
as §3

[3] = system: human epidermoid carcinoma, KB-3-1; assay: In vitro cytotoxicity, Microculture Tetrazolium Assay, KB-3-1; type: cell-based
Method: as §1, §2, §3

[4] = system: KB-A1 (multi-drug resistant line induced by adriamycin); assay: In vitro cytotoxicity, Microculture Tetrazolium Assay, KB-A1 (adriamycin-resistant); type: cell-based; details: Homo sapiens
Method: as §1, §2
the corresponding resistant line, KB-A1, the multi-drug resistance of which was induced by adriamycin (ADR).
as §3

[5] = system: human lung carcinoma NCI-H460; assay: Anti-tumour activity in an orthotopic model of human lung carcinoma NCI-H460 implanted intrapleurally; type: in vivo, human (tumour line, in female Nude Balb/C mice); details: for toxicity of the dose: dihydrochloride
Method: 2/Anti-tumour Activity of the Compounds in an Orthotopic Model of Human Lung Carcinoma NCI-H460 Implanted Intrapleurally
The line NCI-H460, which originates from a human lung carcinoma of "not small cell" type, was supplied by the American Type Culture Collection (Frederick, USA). The cells are cultured in vitro in complete RPMI 1640 medium in Falcon flasks. On the day of the implantation, the cells are separated using trypsin, centrifuged and suspended in complete culture medium. The cells are then implanted in the pleural cavity of female Nude Balb/C mice (10^6 cells per mouse). The products are administered i.v. to groups of 6 animals on days 7 and 14 at the doses indicated. The anti-tumour activity is expressed in % T/C as defined above.
Table 3 lists the results obtained with the compound of Example 3 of the present Application (especially representative of the invention) and with the closest compound of the prior art as reference product.

[6] = system: leukaemia P388; assay: Anti-tumour activity on leukaemia P388 (i.p.) in female BDF1 mice; type: in vivo, murine (female BDF1 mice)
Method: 1/Anti-tumour Activity of the Compounds on Leukaemia P388
The line P388 (murine leukaemia) was supplied by the National Cancer Institute (Frederick, USA). The tumour cells (10^6 cells) were injected on day 0 into the peritoneal cavity of female BDF1 mice (Iffa-Credo, France) weighing from 18 to 20 g (groups of 6 or 7 animals).
The products were administered intravenously, at the doses indicated, on day 1 or on days 1, 5 and 9.
The anti-tumour activity is expressed in % T/C: [formula]
The number of animals surviving 60 days (long-term survival) is indicated.
By way of example, Table 2 gives the results obtained with the compound of Example 32 which is especially representative of the invention.

[7] = 48 h, P388, 2 days incubation, read-out: IC50
[8] = LLC, 4 days incubation, read-out: IC50
[9] = 96 h, KB-3-1, 4 days incubation, read-out: IC50
[10] = 96 h, KB-A1, 4 days incubation, read-out: IC50
[11] = i.v. on days 7 and 14, 56.5 mg/kg
[12] = i.v. on days 7 and 14, 80 mg/kg
[13] = i.v. on days 7 and 14, 113 mg/kg

## COc1cccc2c1C(=O)c1c(O)c3c(c(O)c1C2=O)C[C@@](O)(C(=O)CO)C[C@@H]3O[C@H]1C[C@H](N)[C@H](O)[C@H](C)O1 [ADR, adriamycin, reference compound]
[1]; P388, 48 h
  IC50: 18.1 nM
[2]
  IC50: 19.3 nM
[3]; KB 3-1, 96 h
  IC50: 17.3 nM
[4]; KB-A1, 96 h
  IC50: 6690 nM

## CC(=O)Oc1ccc2c(c1)c1cc3c(C(=O)NCCN(C)C)nccc3c(C)c1n2C [Example 2, 1-[(2-Dimethylaminoethyl)aminocarbonyl]-5,6-dimethyl-9-acetoxy-6H-pyrido-[4,3-b]carbazole]
[1]; [7]
  IC50: 5.8 nM
[2]; [8]
  IC50: 13.5 nM
[3]; [9]
  IC50: 36.1 nM
[4]; [10]
  IC50: 758 nM

## Cc1c2ccnc(C(=O)NCCN(C)C)c2cc2c3cc(OC(=O)CCCC(=O)O)ccc3n(C)c12.Cl.Cl [Example 3, 1-[(2-Dimethylaminoethyl)aminocarbonyl]-5,6-dimethyl-9-(4-carboxybutanoyloxy)-6H-pyrido-[4,3-b]carbazole dihydrochloride]
[1]; [7]
  IC50: 7.1 nM
[2]; [8]
  IC50: 43.2 nM
[3]; [9]
  IC50: 74.2 nM
[4]; [10]
  IC50: 923 nM
[5]; administered twice at 160 mg/kg i.v.
  increase in survival of the animals: 81%
[5]; even at a strong dose, i.v.
  tolerability: very well tolerated
[5]; i.v.
  therapeutic index: excellent
[5]; i.v. on days 7 and 14
  anti-tumour activity: active
[5]; [11]
  T/C %: 133%
[5]; [12]
  T/C %: 147%
[5]; [13]
  T/C %: 174%
[5]; i.v. on days 7 and 14, 160 mg/kg
  T/C %: 181%

## Cc1c2ccnc(C(=O)NCCN(C)C)c2cc2c3cc(OC(=O)CCCCC(=O)O)ccc3n(C)c12 [Example 32, 1-[(2-Dimethylaminoethyl)aminocarbonyl]-5,6-dimethyl-9-(5-carboxypentanoyloxy)-6H-pyrido[4,3-b]carbazole]
[1]; [7]
  IC50: 5.1 nM
[2]; [8]
  IC50: 3.5 nM
[3]; [9]
  IC50: 40.6 nM
[4]; [10]
  IC50: 758 nM
[6]; even at a very high dose, i.v.
  tolerability: well tolerated
  weight loss and premature death: neither significant weight loss nor premature death
[6]; i.v.
  general toxicity: very low general toxicity
  therapeutic index: excellent therapeutic index
[6]; i.v. on D1, 20 mg/kg
  T/C %: 125%
[6]; i.v. on D1, 40 mg/kg
  T/C %: 154%
[6]; i.v. on D1, 80 mg/kg
  T/C %: 186%
[6]; i.v. on D1, 160 mg/kg
  T/C %: 233%
[6]; i.v. on D1, 240 mg/kg
  T/C %: > 600%
  number of animals surviving 60 days (cured): 4/7
[6]; i.v. on D1, 320 mg/kg
  T/C %: > 600%
  number of animals surviving 60 days (cured): 6/7
[6]; i.v. on D1, 5 and 9, 10 mg/kg
  T/C %: 137%
[6]; i.v. on D1, 5 and 9, 20 mg/kg
  T/C %: 171%
[6]; i.v. on D1, 5 and 9, 40 mg/kg
  T/C %: 236%
[6]; i.v. on D1, 5 and 9, 80 mg/kg
  T/C %: > 600%
  number of animals surviving 60 days (cured): 6/7
[6]; i.v. on D1, 5 and 9, 160 mg/kg
  T/C %: > 600%
  number of animals surviving 60 days (cured): 6/7

## Cc1c2ccnc(C(=O)NCCN(C)C)c2cc2c3cc(O)ccc3n(C)c12 [Reference product, 1[(2dimethylaminoethyl)aminocarbonyl5,6-dimethyl-9-hydroxy-6H-pyrido-[4,3]carbazoledihydrochloride, reference compound]
[5]; 113 mg/kg i.v., days 7 and 14
  mouse dead during the treatments: 1 mouse
  toxicity of the dose: toxic dose
[5]; 113 mg/kg i.v., days 7 and 14, listed as reference product
  toxicity of the dose: toxic
[5]; i.v. on days 7 and 14, 40 mg/kg
  T/C %: 126%
[5]; [11]
  T/C %: 145%
[5]; [12]
  T/C %: 156%
[5]; [13]
  T/C %: 186%
